Assay results: patent US12590065B2, “Levorphanol prodrugs and processes for making and using them” (Zevra Therapeutics, Inc., priority 2017, dated 2026)

Assay: stability of the deprotected derivative in aqueous solution
Assay type: physicochemical
Details: observed after Boc deprotection with 4N HCl in dioxane
Procedure: A solution of 38 in 4N HCl in dioxane (5 mL) was stirred at room temperature for 2 hours. Solvent was evaporated under reduced pressure, the residue was co-evaporated with IPAc and dried to give 40 in quantitative yield. The deprotected derivative 40 was not stable in aqueous solution. Compound 40 was converted to the acetyl derivative 42.

In the case of CC(C)[C@H](N)C(=O)OCOC(=O)Oc1ccc2c(c1)[C@@]13CCCC[C@H]1[C@@H](C2)N(C)CC3 [Compound 40, 3-(Val-OCH2OC(O))-Levorphanol], the “stability in aqueous solution” value is reported as “not stable”.
